Experimental data reported in EP0375451A2, “Compounds having a renin-inhibiting activity” (BEECHAM GROUP PLC, priority 1988, dated 1990).
Counter-ions that a name gives are not always drawn. Like-named read-outs stand apart in the source and are kept apart here.

Target: T1, human renin (Homo sapiens, UniProt P00797)
T1 construct: from tissue; host or cells: human plasma from blood of healthy volunteers
T1 sequence (P00797 67-406): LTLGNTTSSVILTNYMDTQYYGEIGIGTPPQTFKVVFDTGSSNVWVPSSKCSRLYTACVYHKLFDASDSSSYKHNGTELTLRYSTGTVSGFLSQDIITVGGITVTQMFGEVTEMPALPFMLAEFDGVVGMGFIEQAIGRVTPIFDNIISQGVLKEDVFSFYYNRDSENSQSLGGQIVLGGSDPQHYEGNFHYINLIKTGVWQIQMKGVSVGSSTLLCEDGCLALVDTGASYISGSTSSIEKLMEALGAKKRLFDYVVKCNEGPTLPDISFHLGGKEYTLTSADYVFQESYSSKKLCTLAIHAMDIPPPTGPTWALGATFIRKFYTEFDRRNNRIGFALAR
Assay: In vitro human renin inhibition (renin activity in human plasma, angiotensin I radioimmunoassay)
Format: biochemical
Protocol: In vitro human renin inhibition
Renin inhibitory activity was estimated as the percentage change in renin activity in human plasma in the presence and absence of compound. The source of plasma was blood taken from healthy volunteers. Renin activity was defined by the difference in angiotensin I levels between two halves of a sample, one incubated at 37^o and the other at 4^o for 2h. Angiotensin I levels were measured using a ¹²⁵I- angiotensin I radioimmunoassay kit (NEN/DuPont, Stevenage). Results were calculated as the mean of at least two, duplicate determinations and IC₅₀ values were calculated by linear regression analysis of at least three concentrations of compound.

[1] = human plasma from healthy volunteers, angiotensin I difference between 37° and 4° incubation for 2h, linear regression of at least three concentrations, read-out: IC₅₀

Row | Compound | IC50 [1] | further results
1 | CC(C)C[C@H](NC(=O)[C@H](Cc1ccccc1)NC(=O)CC1CS(=O)(=O)c2ccccc21)C(=O)N[C@@H](CC1CCCCC1)[C@@H](O)CC(=O)NCCCn1ccnc1 (stereo partly drawn) [El (a), (2,3-Dihydro-1,1-dioxobenzothiophene-3-yl)acetyl-Phe-Leu-ACHPA 3-(1-imidazolyl)propylamide .H₂O] | 15 nM | 
2 | CC(C)C[C@H](NC(=O)[C@H](Cc1ccccc1)NC(=O)CC1CS(=O)(=O)c2ccccc21)C(=O)N[C@@H](CC1CCCCC1)[C@@H](O)CC(=O)NCCCN1CCCC1=O (stereo partly drawn) [Example E3, (2,3-Dihydro-1,1-dioxobenzothiophene-3-yl)acetyl-Phe-Leu-ACHPA 3-(2-oxopyrrolidin-1-yl) propylamide] | 27 nM | 
3 | CC(=O)NCCNC(=O)C[C@H](O)[C@H](CC1CCCCC1)NC(=O)[C@H](CC(C)C)NC(=O)[C@H](Cc1ccccc1)NC(=O)CC1CS(=O)(=O)c2ccccc21 (stereo partly shown) [Example E6] |  | IC50: 87 nM
4 | CC(C)C[C@H](NC(=O)[C@H](Cc1ccccc1)NC(=O)CC1COc2ccc(CN)cc21)C(=O)N[C@@H](CC1CCCCC1)[C@@H](O)CC(=O)NCCCn1ccnc1 (stereo partly drawn) [Example E13, (5-(Aminomethyl)-2,3-dihydrobenzofuran-3-yl)acetyl-Phe-Leu-ACHPA 3-(1-imidazolyl)propylamide .2(CF₃CO₂H).H₂O] | 32 nM | 
5 | CC(C)C[C@H](NC(=O)[C@H](Cc1ccccc1)NC(=O)CC1CS(=O)(=O)c2ccccc21)C(=O)N[C@@H](CC1CCCCC1)[C@@H](O)CC(=O)NCCCCn1ccnc1 (stereo partly drawn) [Example E14, (2,3-Dihydro-1,1-dioxobenzothiophene-3-yl)acetyl-Phe-Leu-ACHPA 4-(1-imidazolyl)butylamide .HCl.2H₂O] | 37 nM | 
6 | COC(=O)CCCCNC(=O)C[C@H](O)[C@H](CC1CCCCC1)NC(=O)[C@H](CC(C)C)NC(=O)[C@H](Cc1ccccc1)NC(=O)CC1CS(=O)(=O)c2ccccc21 (stereo partly drawn) [Example E18, (2,3-Dihydro-1,1-dioxobenzothiophene-3-yl)acetyl-Phe-Leu-ACHPA-NH(CH₂)CO₂Me.0.5H₂O] | 30 nM | 
7 | CC(C)C[C@H](NC(=O)[C@H](Cc1ccccc1)NC(=O)CC1CS(=O)(=O)c2ccccc21)C(=O)N[C@@H](CC1CCCCC1)[C@@H](O)CC(=O)NCCCCC(=O)O (stereo partly drawn) [Example E19, (2,3-Dihydro-1,1-dioxobenzothiophene-3-yl)acetyl-Phe-Leu-ACHPA-NH(CH₂)₄CO₂H] | 45 nM | 
8 | CC(C)C[C@H](NC(=O)[C@H](Cc1ccccc1)NC(=O)CC1CS(=O)(=O)c2ccccc21)C(=O)N[C@@H](CC1CCCCC1)[C@@H](O)CC(=O)NCCN1CCN(C)CC1 (stereo partly drawn) [Example E22, (2,3-Dihydro-1,1-dioxobenzothiophene-3-yl)acetyl-Phe-Leu-ACHPA 2-(4-methylpiperazin-1-yl)ethylamide .2.5H₂O] | 95 nM | 
9 | CC(C)C[C@H](NC(=O)[C@H](Cc1ccccc1)NC(=O)CCCC1Cc2ccc(N)cc2S1(=O)=O)C(=O)N[C@@H](CC1CCCCC1)[C@@H](O)CC(=O)NCCCn1ccnc1 (stereo partly drawn) [Example E34a, 4-(6-Amino-2,3-dihydro-1,1-dioxobenzothiophene-2-yl)butanoyl-Phe-Leu-ACHPA 3-(1-imidazolyl)propylamide] | 12 nM | 
10 | CC(C)C[C@H](NC(=O)[C@H](Cc1ccccc1)NC(=O)CC1CS(=O)(=O)c2cc(CN)ccc21)C(=O)N[C@@H](CC1CCCCC1)[C@@H](O)CC(=O)NCCCC(=O)O (stereo partly drawn) [Example E37, (6-(Aminomethyl)-2,3-dihydro-1,1-dioxobenzothiophene-3-yl)acetyl-Phe-Leu-ACHPA-NH(CH₂)₃CO₂H .CF₃CO₂H] | 44 nM | 
11 | CC(C)C[C@H](NC(=O)[C@H](Cc1ccccc1)NC(=O)CCn1c(=O)[nH]c2ccccc21)C(=O)N[C@@H](CC1CCCCC1)[C@@H](O)CC(=O)NCCCn1ccnc1 [Example E41, (2,3-Dihydro-2-oxo-1H-benzimidazole-1-propanoyl)-Phe-Leu-ACHPA 3-(1-imidazolyl)propylamide .0.5CHCl₃] |  | IC50: 43 nM
12 | CC(C)C[C@H](NC(=O)[C@H](Cc1ccccc1)NC(=O)CC1CS(=O)(=O)c2ccc(CN)cc21)C(=O)N[C@@H](CC1CCCCC1)[C@@H](O)CC(=O)NCCCn1ccnc1 (stereo partly drawn) [Example E43, (5-(Aminomethyl)-2,3-dihydro-1,1-dioxobenzothiophene-3-yl)acetyl-Phe-Leu-ACHPA 3-(1-imidazolyl)propylamide .3CF₃CO₂H.H₂O] | 12 nM | 
13 | CC(C)C[C@H](NC(=O)[C@H](Cc1ccccc1)NC(=O)CC1COc2ccc(CNCC(=O)O)cc21)C(=O)N[C@@H](CC1CCCCC1)[C@@H](O)CC(=O)NCCCn1ccnc1 (stereo partly drawn) [Example E44, (5- (Carboxymethylaminomethyl)-2,3-dihydrobenzofuran-3-yl)acetyl-Phe-Leu-ACHPA 3-(1-imidazolyl)propylamide .3(CF₃CO₂H)] | 48 nM | 
14 | CC(C)C[C@H](NC(=O)[C@H](Cc1ccccc1)NC(=O)CCCC1Cc2ccccc2S1(=O)=O)C(=O)N[C@@H](CC1CCCCC1)[C@@H](O)CC(=O)NCCCn1ccnc1 (stereo partly drawn) [Example E50a, 4-(2,3-Dihydro-1,1-dioxobenzothiophene-2-yl)butanoyl-Phe-Leu-ACHPA 3-(1-imidazolyl)propylamide] | 14 nM | 
15 | CC(C)C[C@H](NC(=O)[C@H](Cc1ccccc1)NC(=O)CC1CS(=O)(=O)c2cc(CNC(=O)OC(C)(C)C)ccc21)C(=O)N[C@@H](CC1CCCCC1)[C@@H](O)CC(=O)NCCCn1ccnc1 (stereo partly shown) [Example E51] |  | IC50 (read-out: IC₅₀, human plasma from healthy volunteers, angiotensin I difference between 37° and 4° incubation for 2h, linear regression of at least three concentrations): 53 nM
16 | CC(C)C[C@H](NC(=O)[C@H](Cc1ccccc1)NC(=O)CC1CS(=O)(=O)c2cc(CN)ccc21)C(=O)N[C@@H](CC1CCCCC1)[C@@H](O)CC(=O)NCCCn1ccnc1 (stereo partly drawn) [Example E52, (6-(Aminomethyl)-2,3-dihydro-1,1-dioxobenzothiophene-3-yl)acetyl-Phe-Leu-ACHPA 3-(1-imidazolyl)propylamide .3(CF₃CO₂H)] | 20 nM | 
